Data as given in ChEMBL document CHEMBL5247643, “Discovery and Characterization of BAY-805, a Potent and Selective Inhibitor of Ubiquitin-Specific Protease USP21” (J Med Chem, 2023).
The source made the active and inactive calls. No cut-off for these calls is given here.

Assays:
[1] = molecular target: T1, Ubiquitin carboxyl-terminal hydrolase 2 (Homo sapiens, UniProt O75604); experiment: Inhibition of human His-tagged USP2 (259 to 605 residues) using ubiquitin rhodamine 110 110 as substrate preincubated for 15 to 20 mins followed by enzyme addition and measured after 25 mins by fluorometric assay
T1 sequence (O75604 whole entry): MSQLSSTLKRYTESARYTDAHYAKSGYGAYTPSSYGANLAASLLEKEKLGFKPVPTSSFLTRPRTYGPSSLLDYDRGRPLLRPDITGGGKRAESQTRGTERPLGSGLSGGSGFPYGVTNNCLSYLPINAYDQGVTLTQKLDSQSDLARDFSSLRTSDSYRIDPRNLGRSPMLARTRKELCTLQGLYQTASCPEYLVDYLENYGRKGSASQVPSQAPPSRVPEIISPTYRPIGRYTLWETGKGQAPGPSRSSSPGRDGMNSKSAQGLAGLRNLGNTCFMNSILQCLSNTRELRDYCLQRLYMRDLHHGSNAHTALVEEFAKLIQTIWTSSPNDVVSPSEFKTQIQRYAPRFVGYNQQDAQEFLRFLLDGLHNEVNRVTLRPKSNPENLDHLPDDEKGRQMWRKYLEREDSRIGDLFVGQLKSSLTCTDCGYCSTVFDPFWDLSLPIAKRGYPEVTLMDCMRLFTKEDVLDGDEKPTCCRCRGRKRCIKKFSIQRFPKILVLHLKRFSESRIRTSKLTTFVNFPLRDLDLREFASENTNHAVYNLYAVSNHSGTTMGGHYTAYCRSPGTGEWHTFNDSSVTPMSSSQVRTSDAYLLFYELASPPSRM

[2] = molecular target: T2, Ubiquitin carboxyl-terminal hydrolase 21 (Homo sapiens, UniProt Q9UK80); experiment: Inhibition of human full length USP21 using Btn-Ahx-PNIRFLD-K(Ubi)-LPQQT-GD-amide as substrate preincubated for 15 to 20 mins followed by substrate addition and measured after 25 mins by HTRF assay
T2 sequence (Q9UK80 whole entry): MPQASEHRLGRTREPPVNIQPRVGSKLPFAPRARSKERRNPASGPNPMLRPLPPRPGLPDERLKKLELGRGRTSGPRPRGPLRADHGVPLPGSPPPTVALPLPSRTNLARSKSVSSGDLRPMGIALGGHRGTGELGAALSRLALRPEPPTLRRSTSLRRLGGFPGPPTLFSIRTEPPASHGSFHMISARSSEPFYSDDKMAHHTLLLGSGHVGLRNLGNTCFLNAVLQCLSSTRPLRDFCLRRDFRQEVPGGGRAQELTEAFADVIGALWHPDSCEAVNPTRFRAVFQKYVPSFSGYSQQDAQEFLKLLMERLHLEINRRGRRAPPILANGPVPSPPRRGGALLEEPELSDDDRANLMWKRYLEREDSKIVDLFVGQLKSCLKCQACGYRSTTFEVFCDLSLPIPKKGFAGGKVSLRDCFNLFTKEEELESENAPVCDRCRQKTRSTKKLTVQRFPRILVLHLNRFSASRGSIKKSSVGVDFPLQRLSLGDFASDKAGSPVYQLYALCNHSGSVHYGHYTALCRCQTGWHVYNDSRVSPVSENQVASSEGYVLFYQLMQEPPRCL

[3] = test system: U2OS; experiment: Antiproliferative activity against human U2OS cells assessed as reduction in cell viability up to 30 uM incubated for 72 hrs by CellTiter-Glo luminescent assay; assay type: functional, cell-based
[4] = test system: MDA-MB-231; experiment: Antiproliferative activity against human MDA-MB-231 cells assessed as reduction in cell viability up to 30 uM incubated for 72 hrs by CellTiter-Glo luminescent assay; assay type: functional, cell-based
[5] = test system: MOLM-13; experiment: Antiproliferative activity against human MOLM-13 cells assessed as reduction in cell viability up to 30 uM incubated for 72 hrs by CellTiter-Glo luminescent assay; assay type: functional, cell-based
[6] = test system: Jurkat; experiment: Antiproliferative activity against human Jurkat cells assessed as reduction in cell viability up to 30 uM incubated for 72 hrs by CellTiter-Glo luminescent assay; assay type: functional, cell-based
[7] = test system: A549; experiment: Antiproliferative activity against human A549 cells assessed as reduction in cell viability up to 30 uM incubated for 72 hrs by CellTiter-Glo luminescent assay; assay type: functional, cell-based

COCC(NC(=O)C1CCCC1)C(=O)Nc1nnc(Cc2ccc([N+](=O)[O-])cc2)s1 (racemic)
IC50 [1]: 25 µM

N#Cc1ccc(Cc2nnc(NC(=O)[C@H](NC(=O)C3(C(F)(F)F)CCCCC3)C3CCCC3)s2)cc1
IC50 [2]: 0.012 µM

CC(C)C[C@@H](NC(=O)C1(C(F)(F)F)CCCCC1)C(=O)Nc1nnc(Cc2ccc(C#N)cc2)s1
Activity [3]: inactive | Activity [4]: inactive | Activity [5]: inactive | Activity [6]: inactive | Activity [7]: inactive
